# Laboratory results published in the OligoGym collection.
# HELM strings list units from the 5' end as sugar, base in round brackets, then linkage (d deoxyribose, r ribose, m 2'-O-methyl, p phosphodiester). Strings are as the collection lists them; they lack the last nucleoside at the 3' end of the tested compound. [moe] = 2'-O-(2-methoxyethyl) (MOE); [sp] = phosphorothioate linkage; [m5C] = 5-methylcytosine
# Biological target: PRNP
# Test: mouse, dose not given
# Conditions: ASO
row,Substance,3 h FOB score [score 0-7]
1,RNA1{[moe](A)[sp].[moe](A)p.[moe](A)p.[moe]([m5C])p.[moe](G)[sp].d(T)[sp].d([m5C])[sp].d([m5C])[sp].d(A)[sp].d(T)[sp].d(T)[sp].d(T)[sp].d(T)[sp].d([m5C])[sp].d(T)[sp].[moe](G)p.[moe](T)p.[moe](G)[sp].[moe]([m5C])}$$$$ (last 3' nucleoside missing),0
2,RNA1{[moe](A)[sp].[moe](A)p.[moe](G)p.[moe](G)p.[moe](T)[sp].d(T)[sp].d([m5C])[sp].d(G)[sp].d([m5C])[sp].d([m5C])[sp].d(A)[sp].d(T)[sp].d(A)[sp].d(A)[sp].d(T)[sp].[moe](G)p.[moe](A)p.[moe]([m5C])[sp].[moe](T)}$$$$ (last 3' nucleoside missing),5.25
3,RNA1{[moe](A)[sp].[moe](A)p.[moe](G)p.[moe]([m5C])p.[moe]([m5C])[sp].d(T)[sp].d(T)[sp].d(T)[sp].d([m5C])[sp].d(A)[sp].d(T)[sp].d(A)[sp].d(T)[sp].d(A)[sp].d(T)[sp].[moe](G)p.[moe](T)p.[moe](T)[sp].[moe](A)}$$$$ (last 3' nucleoside missing),0
4,RNA1{[moe](A)[sp].[moe](A)p.[moe](T)p.[moe](G)p.[moe](A)[sp].d([m5C])[sp].d(T)[sp].d([m5C])[sp].d(A)[sp].d(T)[sp].d([m5C])[sp].d(A)[sp].d(T)[sp].d(T)[sp].d(T)[sp].[moe](T)p.[moe](G)p.[moe]([m5C])[sp].[moe]([m5C])}$$$$ (last 3' nucleoside missing),0
5,RNA1{[moe](A)[sp].[moe](A)p.[moe](T)p.[moe](T)p.[moe](T)[sp].d([m5C])[sp].d(T)[sp].d(T)[sp].d(T)[sp].d(T)[sp].d(T)[sp].d([m5C])[sp].d([m5C])[sp].d(A)[sp].d([m5C])[sp].[moe](T)p.[moe](T)p.[moe]([m5C])[sp].[moe](A)}$$$$ (last 3' nucleoside missing),0
6,RNA1{[moe](A)[sp].[moe](A)p.[moe](T)p.[moe]([m5C])p.[moe](A)[sp].d(T)[sp].d(A)[sp].d(T)[sp].d(T)[sp].d(T)[sp].d([m5C])[sp].d(T)[sp].d(G)[sp].d(T)[sp].d([m5C])[sp].[moe](A)p.[moe](T)p.[moe]([m5C])[sp].[moe](T)}$$$$ (last 3' nucleoside missing),5
7,RNA1{[moe](A)[sp].[moe](A)p.[moe](T)p.[moe]([m5C])p.[moe](A)[sp].d(T)[sp].d(T)[sp].d([m5C])[sp].d(T)[sp].d(G)[sp].d(G)[sp].d(T)[sp].d(T)[sp].d(T)[sp].d([m5C])[sp].[moe]([m5C])p.[moe](A)p.[moe](G)[sp].[moe](G)}$$$$ (last 3' nucleoside missing),0.5
8,RNA1{[moe](A)[sp].[moe](A)p.[moe]([m5C])p.[moe](A)p.[moe](T)[sp].d(T)[sp].d(T)[sp].d(G)[sp].d(A)[sp].d(T)[sp].d(T)[sp].d(T)[sp].d([m5C])[sp].d(A)[sp].d(A)[sp].[moe](G)p.[moe](T)p.[moe]([m5C])[sp].[moe]([m5C])}$$$$ (last 3' nucleoside missing),2.5
9,RNA1{[moe](A)[sp].[moe](A)p.[moe]([m5C])p.[moe](G)p.[moe](T)[sp].d([m5C])[sp].d([m5C])[sp].d(A)[sp].d(T)[sp].d(T)[sp].d(T)[sp].d(T)[sp].d([m5C])[sp].d(T)[sp].d(G)[sp].[moe](T)p.[moe](G)p.[moe]([m5C])[sp].[moe](T)}$$$$ (last 3' nucleoside missing),0
10,RNA1{[moe](A)[sp].[moe](G)p.[moe](A)p.[moe](G)p.[moe]([m5C])[sp].d(A)[sp].d(A)[sp].d(T)[sp].d(A)[sp].d(T)[sp].d(A)[sp].d(T)[sp].d(T)[sp].d([m5C])[sp].d(A)[sp].[moe]([m5C])p.[moe]([m5C])p.[moe](A)[sp].[moe](A)}$$$$ (last 3' nucleoside missing),0
11,RNA1{[moe](A)[sp].[moe](G)p.[moe](G)p.[moe](G)p.[moe]([m5C])[sp].d(A)[sp].d(T)[sp].d(T)[sp].d(A)[sp].d(G)[sp].d(T)[sp].d(A)[sp].d(T)[sp].d(A)[sp].d([m5C])[sp].[moe](T)p.[moe](G)p.[moe](A)[sp].[moe](G)}$$$$ (last 3' nucleoside missing),2.75
12,RNA1{[moe](A)[sp].[moe](G)p.[moe](T)p.[moe](A)p.[moe](T)[sp].d([m5C])[sp].d(A)[sp].d(T)[sp].d(G)[sp].d(T)[sp].d(G)[sp].d(G)[sp].d([m5C])[sp].d([m5C])[sp].d(T)[sp].[moe]([m5C])p.[moe]([m5C])p.[moe](T)[sp].[moe](A)}$$$$ (last 3' nucleoside missing),5.75
13,RNA1{[moe](A)[sp].[moe](G)p.[moe](T)p.[moe](T)p.[moe]([m5C])[sp].d(T)[sp].d(T)[sp].d(T)[sp].d(T)[sp].d([m5C])[sp].d(T)[sp].d(T)[sp].d(T)[sp].d(G)[sp].d([m5C])[sp].[moe](A)p.[moe]([m5C])p.[moe](A)[sp].[moe]([m5C])}$$$$ (last 3' nucleoside missing),5.25
14,RNA1{[moe](A)[sp].[moe](G)p.[moe]([m5C])p.[moe](A)p.[moe]([m5C])[sp].d(A)[sp].d(G)[sp].d(G)[sp].d([m5C])[sp].d(T)[sp].d(A)[sp].d(T)[sp].d([m5C])[sp].d(T)[sp].d(T)[sp].[moe](T)p.[moe]([m5C])p.[moe](T)[sp].[moe](A)}$$$$ (last 3' nucleoside missing),5
15,RNA1{[moe](A)[sp].[moe](G)p.[moe]([m5C])p.[moe](T)p.[moe]([m5C])[sp].d(T)[sp].d(A)[sp].d(T)[sp].d(T)[sp].d(A)[sp].d(A)[sp].d(T)[sp].d(A)[sp].d(G)[sp].d(G)[sp].[moe](T)p.[moe](T)p.[moe](A)[sp].[moe](G)}$$$$ (last 3' nucleoside missing),5.5
16,RNA1{[moe](A)[sp].[moe](G)p.[moe]([m5C])p.[moe](T)p.[moe]([m5C])[sp].d(T)[sp].d([m5C])[sp].d([m5C])[sp].d(T)[sp].d(G)[sp].d(T)[sp].d(A)[sp].d(T)[sp].d(G)[sp].d(T)[sp].[moe]([m5C])p.[moe](A)p.[moe](A)[sp].[moe](A)}$$$$ (last 3' nucleoside missing),4.75
17,RNA1{[moe](A)[sp].[moe](T)p.[moe](G)p.[moe](G)p.[moe](T)[sp].d(G)[sp].d([m5C])[sp].d(T)[sp].d(T)[sp].d(T)[sp].d([m5C])[sp].d(A)[sp].d([m5C])[sp].d(A)[sp].d(A)[sp].[moe]([m5C])p.[moe](T)p.[moe](G)[sp].[moe]([m5C])}$$$$ (last 3' nucleoside missing),1
18,RNA1{[moe](A)[sp].[moe](T)p.[moe](G)p.[moe](G)p.[moe]([m5C])[sp].d(A)[sp].d([m5C])[sp].d(T)[sp].d(T)[sp].d(T)[sp].d([m5C])[sp].d(T)[sp].d(T)[sp].d(T)[sp].d(T)[sp].[moe](T)p.[moe](A)p.[moe](T)[sp].[moe](T)}$$$$ (last 3' nucleoside missing),1
19,RNA1{[moe](A)[sp].[moe](T)p.[moe](G)p.[moe](T)p.[moe](T)[sp].d(A)[sp].d([m5C])[sp].d(A)[sp].d(G)[sp].d(T)[sp].d(T)[sp].d(A)[sp].d(T)[sp].d(G)[sp].d(T)[sp].[moe](T)p.[moe]([m5C])p.[moe](A)[sp].[moe]([m5C])}$$$$ (last 3' nucleoside missing),2.5
20,RNA1{[moe](A)[sp].[moe](T)p.[moe](G)p.[moe](T)p.[moe](T)[sp].d(T)[sp].d(T)[sp].d([m5C])[sp].d([m5C])[sp].d(A)[sp].d(G)[sp].d(T)[sp].d(G)[sp].d([m5C])[sp].d([m5C])[sp].[moe]([m5C])p.[moe](A)p.[moe](T)[sp].[moe]([m5C])}$$$$ (last 3' nucleoside missing),5.75
21,RNA1{[moe](A)[sp].[moe](T)p.[moe](G)p.[moe]([m5C])p.[moe]([m5C])[sp].d(A)[sp].d([m5C])[sp].d(A)[sp].d(T)[sp].d(A)[sp].d(T)[sp].d(A)[sp].d(G)[sp].d(G)[sp].d(G)[sp].[moe](T)p.[moe]([m5C])p.[moe]([m5C])[sp].[moe](T)}$$$$ (last 3' nucleoside missing),3
22,RNA1{[moe](A)[sp].[moe](T)p.[moe](T)p.[moe](T)p.[moe](A)[sp].d(G)[sp].d(G)[sp].d([m5C])[sp].d(T)[sp].d([m5C])[sp].d(T)[sp].d(T)[sp].d(T)[sp].d(T)[sp].d([m5C])[sp].[moe]([m5C])p.[moe](A)p.[moe](G)[sp].[moe](G)}$$$$ (last 3' nucleoside missing),4.75
23,RNA1{[moe](A)[sp].[moe](T)p.[moe](T)p.[moe](T)p.[moe](A)[sp].d([m5C])[sp].d(T)[sp].d(T)[sp].d(T)[sp].d(T)[sp].d([m5C])[sp].d(A)[sp].d(G)[sp].d([m5C])[sp].d(T)[sp].[moe](G)p.[moe]([m5C])p.[moe]([m5C])[sp].[moe](T)}$$$$ (last 3' nucleoside missing),3
24,RNA1{[moe](A)[sp].[moe](T)p.[moe](T)p.[moe](T)p.[moe](A)[sp].d([m5C])[sp].d(T)[sp].d([m5C])[sp].d(T)[sp].d(T)[sp].d(G)[sp].d(T)[sp].d(T)[sp].d(G)[sp].d(A)[sp].[moe](A)p.[moe]([m5C])p.[moe](A)[sp].[moe](G)}$$$$ (last 3' nucleoside missing),3.75
25,RNA1{[moe](A)[sp].[moe](T)p.[moe](T)p.[moe](T)p.[moe](G)[sp].d(A)[sp].d(T)[sp].d(T)[sp].d(T)[sp].d([m5C])[sp].d(A)[sp].d(A)[sp].d(G)[sp].d(T)[sp].d([m5C])[sp].[moe]([m5C])p.[moe]([m5C])p.[moe](A)[sp].[moe](G)}$$$$ (last 3' nucleoside missing),5.75
26,RNA1{[moe](A)[sp].[moe](T)p.[moe]([m5C])p.[moe](A)p.[moe](T)[sp].d(T)[sp].d(T)[sp].d(T)[sp].d(G)[sp].d([m5C])[sp].d([m5C])[sp].d(A)[sp].d(T)[sp].d(T)[sp].d(T)[sp].[moe](A)p.[moe](T)p.[moe]([m5C])[sp].[moe](T)}$$$$ (last 3' nucleoside missing),3.25
